Source: patent US11882858B2, “Composition for skin whitening comprising β-mangostin as effective ingredient” (INDUSTRY-ACADEMIC COOPERATION FOUNDATION GYEONGSANG …, priority 2015, dated 2024)
Where a SMILES comes first, the peptide text is derived from it. The star is where a group is joined. Cbz = O=C(OCc1ccccc1)*

Key:
tyrosinase [1] = experiment: Tyrosinase expression (RT-PCR and Western blotting); type: cell-based, mouse; settings: for effect on the suppressed tyrosinase expression induced by β-mangostin: autophagy inhibitor with β-mangostin and α-MSH
Protocol: (§1) Total RNA was extracted from the cells by using RiboEX reagent (GeneAll Biotechnology Co. Ltd, Seoul, South Korea). cDNA was synthesized by using 2 μg of RNA based on reverse transcription (Thermo Scientific, Waltham, MA, USA). PCR was carried out by using Solg™ e-Taq DNA polymerase kit (SolGent Co. Ltd, Daejeon, South Korea), and each primer described in the following Table 1 was used for PCR.
Total proteins were extracted by using RIPA dissolving buffer (50 mM Tris-HCl (pH 8.0), 150 mM NaCl, 1% NP-40, 0.5% sodium dioxycholate and 0.1% SDS). […] The membrane was then incubated with 5% skim milk and primary antibody for 1 hour in TBS (tris-buffer saline) containing 0.1% Tween 20. The antibodies against tyrosinase and TRP-1 were purchased from Santa Cruz Biotechnology, USA. LC3B, p62 and ATG5 were purchased from CST (Cell Signaling Technology, USA). The antibody against PMEL was purchased from Abcam (UK). Signal detection was made based on enhanced chemiluminescence (Bio-Rad).

[2] = tested on: p62 and PMEL (premelanosome protein); experiment: p62 and PMEL expression (Western blot); type: cell-based, mouse; settings: for effect on the suppressed expression of p62 and PMEL induced by β-mangostin: autophagy inhibitor with β-mangostin and α-MSH
Protocol: (§2) Total proteins were extracted by using RIPA dissolving buffer (50 mM Tris-HCl (pH 8.0), 150 mM NaCl, 1% NP-40, 0.5% sodium dioxycholate and 0.1% SDS). The proteins were separated on a 10 to 15% SDS-PAGE, and transferred to a PVDF membrane (Millipore, Billerica, MA, USA). The membrane was then incubated with 5% skim milk and primary antibody for 1 hour in TBS (tris-buffer saline) containing 0.1% Tween 20. The antibodies against tyrosinase and TRP-1 were purchased from Santa Cruz Biotechnology, USA. LC3B, p62 and ATG5 were purchased from CST (Cell Signaling Technology, USA). The antibody against PMEL was purchased from Abcam (UK). Signal detection was made based on enhanced chemiluminescence (Bio-Rad).
Autophagy occurs through a fusion process between an autophagosome and a lysosome. In order to confirm whether or not the depigmentation effect induced by β-mangostin occurs through lysosome-dependent protein degradation during the autophagy process, B16F10 cells were treated with bafilomycin A1 (liquid vacuole type, H^+-ATPase inhibitor) which inhibits β-mangostin, α-MSH, and lysosome activity. As a result, as it is shown in FIG. 7, bafilomycin A1 inhibits, at the aforementioned conditions, the suppressed tyrosinase expression that has been induced by β-mangostin.

[3] = tested on: B16F10 mouse melanoma cells; experiment: Melanin content in α-MSH-treated cells; type: cell-based; settings: for influence on melanin content: co-treatment of inhibitor with β-mangostin and α-MSH; for change in melanin content / melanin content reduction: co-treatment with α-MSH, compared to α-MSH only; for melanin content reduction: 5 μM
Protocol: Measurement of melanin content was carried out by slightly modifying the method by Yang et al. (Yang et al., 2006, Acta pharmacologica Sinica 27, 1467-73). Specifically, B16F10 cells were inoculated into a 6-well plate and cultured for 24 hours. […] The cultured cells were collected after being subjected to trypsinization and dissolution in 1 N NaOH containing DMSO for 24 hours at 65° C. By using a microplate reader (Bio-Rad), melanin content was measured at 415 nm.
(§3) As a result, as it is shown in FIG. 3, cell pellets were turned into black color when the treatment is carried out with α-MSH only. […] Namely, it was shown that β-mangostin suppresses the pigmentation induced by α-MSH. […] In particular, when the treatment is carried out with β-mangostin at 5 μM, which is the same concentration as α-mangostin, melanin content was reduced by 40% or so.

[4] = tested on: B16F10 mouse melanoma cells; experiment: Cell viability (MTT analysis); type: cell-based; settings: 24 hours, at 20 μM and 40 μM
Protocol: B16F10 cells were cultured for 24 hours in a 96-well plate. […] Subsequently, a MTT solution (5 μg/mL) was added to the cells, which were then cultured for 3 hours. After removing the medium and treating the cells with DMSO, the cells were cultured for 20 minutes. By using a microplate reader (Bio-Rad), absorbance at 595 nm was measured.
Then, based on MTT […]-(4,5-dimethylthiazol-2-yl)-2,5-diphenyltetrazolium bromide) analysis, cell viability was determined.

tyrosinase [5] = target: T1, tyrosinase (Mus musculus, UniProt P11344); experiment: Tyrosinase activity (L-DOPA oxidation) in cell lysates; type: cell-based
T1 construct: The cultured cells were collected and dissolved with 1% Triton X-100 solution for 1 hour on ice; endogenous in cells; host or cells: B16F10 mouse melanoma cells
T1 sequence (P11344 19-533): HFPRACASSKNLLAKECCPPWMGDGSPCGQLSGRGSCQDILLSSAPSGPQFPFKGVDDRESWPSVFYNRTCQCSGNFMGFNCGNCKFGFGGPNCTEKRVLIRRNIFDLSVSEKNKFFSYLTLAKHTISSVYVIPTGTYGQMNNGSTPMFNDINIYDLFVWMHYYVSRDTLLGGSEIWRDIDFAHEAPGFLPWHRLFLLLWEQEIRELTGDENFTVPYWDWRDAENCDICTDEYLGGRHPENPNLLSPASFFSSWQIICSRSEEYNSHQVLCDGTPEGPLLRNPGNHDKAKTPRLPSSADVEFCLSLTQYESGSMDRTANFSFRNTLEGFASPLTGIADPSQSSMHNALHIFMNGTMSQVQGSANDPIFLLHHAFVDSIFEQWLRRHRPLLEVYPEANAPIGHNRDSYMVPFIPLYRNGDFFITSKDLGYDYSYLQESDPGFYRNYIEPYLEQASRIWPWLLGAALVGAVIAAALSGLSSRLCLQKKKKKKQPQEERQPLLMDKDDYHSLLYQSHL
Protocol: Tyrosinase activity was measured by slightly modifying the method by Ohgushi et al. (Ohgushi et al., 2009, Biological & Pharmaceutical Bulletin 32, 308-10). Specifically, B16F10 cells were inoculated into a 6-well plate and cultured for 24 hours. Thereafter, the cells were treated with β-mangostin and α-MSH, each at 1 μM, followed by culture for 48 hours. The cultured cells were collected and dissolved with 1% Triton X-100 solution for 1 hour on ice. The proteins were cultured with 100 μl (2 mg/ml) L-DOPA in a 5% CO2 humidifying incubator at 37° C. condition. By using a microplate reader (Bio-Rad), absorbance at 490 nm was measured.

[6] = tested on: B16F10 mouse melanoma cells; experiment: Removal of melanin previously produced by α-MSH; type: cell-based; settings: treatment after 2 days of α-MSH
Protocol: In order to determine the activity of β-mangostin for removing melanin which has been previously produced by α-MSH as a melanin cell stimulating hormone, B16F10 cells were treated for 2 days with α-MSH to have synthesis of melanin. Thereafter, the cells were treated with β-mangostin of the present invention and 3-MA, which is an autophagy inhibitor.

[7] = tested on: B16F10 mouse melanoma cells; experiment: Suppression of α-MSH-induced pigmentation (cell pellet color); type: cell-based; settings: co-treatment with α-MSH, 72 hours
Protocol: as §3, with “In order to see whether or not β-mangostin can suppress the pigmentation induced by α-MSH (melanocyte-stimulating hormone), B16F10 cells were treated with α-MSH and β-mangostin followed by incubation for 72 hours. As” for “As”

[8] = tested on: mRFP-EGFP-LC3B in B16F10 cells; experiment: Melanosome autophagy in cells expressing mRFP-EGFP-LC3B (confocal microscopy); type: cell-based, mouse; settings: β-mangostin (10 μM) and α-MSH (1 μM)
Protocol: B16F10 cells were infected with mRFP-EGFP-LC3B (Kimura et al., 2007, Autophagy 3, 452-60) by using Lipofectamine 3000 (Invitrogen, Carlsbad, CA, USA). The cells were treated with β-mangostin (10 μM) and α-MSH (1 μM), and analysis was made by using confocal microscopy (FV1000, Olympus, Tokyo, Japan).
In order to confirm whether or not β-mangostin can induce the autophagy of a melanosome, B16F10 cells were infected with a construct expressing mRFP-EGFP-LC3B, and then treated with β-mangostin and α-MSH. […] On the other hand, the number of red spots increased in the group treated with both α-MSH and β-mangostin while total number of spots has decreased. If an autophagosome fuses with a lysosome only after wrapping the melanosome, the intra-autophagosomal pH should decrease, and EGFP should be abolished under acidic pH conditions. Accordingly, it was found from the above results that, due to the autophagy enhanced by β-mangostin, degradation of a melanosome has occurred.

[9] = tested on: TRP-1 (tyrosinase-related protein-1); experiment: TRP-1 expression (RT-PCR and Western blotting); type: cell-based, mouse; settings: B16F10 cells
Protocol: as §1, §2
In order to confirm the whitening effect of β-mangostin, RT-PCR and Western blotting analysis were carried out for tyrosinase and TRP-1.

[10] = siATG5, β-mangostin (10 μM) and α-MSH (1 μM), 48 hours
[11] = treatment after 2 days of α-MSH (melanin previously produced)

CO/C1=C\C(C)=C\[C@@H](C)[C@@H](O)[C@@H](C)C/C(C)=C/C=C/[C@H](OC)[C@@H]([C@@H](C)[C@@H](O)[C@H](C)[C@@]2(O)C[C@@H](O)[C@H](C)[C@@H](C(C)C)O2)OC1=O [bafilomycin A1]
effect on the suppressed tyrosinase expression induced by β-mangostin (tyrosinase [1]): inhibits

Cn1cnc(N)c2ncnc1-2 [3-methyladenine]
effect on the suppressed tyrosinase expression induced by β-mangostin (tyrosinase [1]): inhibited
effect on the suppressed expression of p62 and PMEL induced by β-mangostin [2]: inhibit the suppressed expression
influence on melanin content [3]: starts to increase again

CCN(CC)CCCC(C)Nc1ccnc2cc(Cl)ccc12 (centres unmarked) [chloroquine, reference compound]
effect on the suppressed tyrosinase expression induced by β-mangostin (tyrosinase [1]): inhibited
effect on the suppressed expression of p62 and PMEL induced by β-mangostin [2]: inhibit the suppressed expression

CC(C)=CCc1c(O)cc2oc3cc(O)c(O)c(CC=C(C)C)c3c(=O)c2c1O [γ-mangostin]
change in melanin content [3]: further increased the melanin content

COc1c(O)cc2oc3cc(O)c(CC=C(C)C)c(O)c3c(=O)c2c1CC=C(C)C [α-mangostin]
cytotoxicity (cell viability, MTT) [4]: potent cytotoxicity
melanin content reduction [3]: about 20%

CC(C)C[C@@H](C=O)NC(=O)[C@H](CC(C)C)NC(=O)[C@H](CC(C)C)NC(=O)OCc1ccccc1 [MG132] (Cbz-Leu-Leu-Leu-aldehyde)
influence on L-DOPA oxidation (tyrosinase [5]; co-treatment of inhibitor with β-mangostin and α-MSH): no influence
tyrosinase expression amount (tyrosinase [1]; co-treatment of inhibitor with β-mangostin and α-MSH (proteasome dependence)): did not increase
influence on melanin content [3]: no influence

COc1cc2oc3cc(O)c(OC)c(CC=C(C)C)c3c(=O)c2c(O)c1CC=C(C)C [β-mangostin]
content of previously formed melanin [6]: lower effectively
cell pellet color [7]: changed from black color to white color
oxidation level of L-DOPA (tyrosinase [5]; co-treatment with α-MSH, concentration dependent): effectively reduced
expression amount of tyrosinase induced by α-MSH (tyrosinase [1]; RT-PCR and Western blotting, B16F10 cells): effectively lowered
expression of tyrosinase reduced by β-mangostin, after knockdown of ATG5 (tyrosinase [1]; [10]): increased again
expression amount of tyrosinase (tyrosinase [1]; [11]): lower a significant expression amount
number of red spots (mRFP-EGFP-LC3B) [8]: increased
total number of spots (mRFP-EGFP-LC3B) [8]: decreased
expression of p62 and PMEL reduced by β-mangostin, after knockdown of ATG5 [2, 10]: increased again
expression amount of PMEL [2, 11]: lower a significant expression amount
expression amount of TRP-1 induced by α-MSH [9]: effectively lowered
change in melanin content [3]: effectively reduced
melanin content reduction [3]: ~40%
melanin content level reduced by β-mangostin, after knockdown of ATG5 [3, 10]: increased again
